“Also recorded” adds a separate entry of the source.

What all share (assay type): cell-based, human
The subject of series [1] is NK cells. In words: [Cr51]-release assay: lysis of tumour target cells by pre-treated NK cells after H2O2 exposure. The source says: Peripheral blood samples (anonymized by-products of blood donations from healthy adult donors) were purchased from Karolinska University Hospital Blood Bank. Peripheral blood mononuclear cells (PBMC) were isolated from healthy donor buffy coats using density centrifugation with Ficoll® Paque Plus (GE Healthcare). NK cells and CD14^+ monocytes were isolated from PBMCs using NK cell isolation kit or CD14^+ microbeads, respectively (both Miltenyi Biotec), following the manufacturer's instructions. For NK cell expansion, a EBV-LCL feeder cell line was used, irradiated at 100 gy and then co-cultured with NK cells, at the ratio 10:1 LCL:NK, in X-Vivo 20 (Lonza) supplemented with 10% human AB serum and 1000 U/mL IL-2 (Proleukin). From day 6 or 10, NK cells were kept at 0.5×10^6 cells/mL or 1×10^6/mL, respectively. Purity of expanded NK cell was assessed at day 10 by flow cytometry, see below.
Lymphocytes were pre-treated for 18 h with Auranofin (AUF, with the concentration 1 μg/mL for NK cells and 0.5 μg/mL for TIL, if not indicated differently), DL-Sulforaphane (SUL) or Dimethyl Fumarate (DMF) (all Sigma-Aldrich) at indicated concentrations.
(§1) For Nrf2 inhibition, NK cells were treated with 50 μM ML-385 (Sigma-Aldrich) in parallel. For H2O2 treatment, lymphocyte cells were washed and resuspended to 1×10^6 cells/mL in medium and exposed to indicated H2O2 (Sigma-Aldrich) concentration for 1 h at 37° C. Cells were washed with medium and then used for further experiments. For monocyte experiments, autologous NK cell-monocytes or TIL-monocytes were used. NK cells/TIL were isolated and pre-treated with 0.5 μg/mL AUF, as described above, and co-cultured with unstimulated at the ratio, 1:2 M:NK, or stimulated monocytes at the ratio, 1:1 M:NK, if not indicated otherwise. Stimulated monocytes were activated with 100 ng/ml PMA for 1 min, washed and added at indicated ratio, the number of NK cell/TIL was kept constant. As control, H2O2 was used at indicated concentration. Cells were co-cultured for 2 h and then effector cells were stained for intracellular ROS (see flow cytometry) or used as effector cells in Cr^51 release assay (E:T ratio 10:1).
(§2) For cytotoxic assay, a standard 4 h [Cr^51]-release assay was used. Briefly, tumour cells were harvested and labeled with 51Cr (PerkinElmer) and used as target cells. Effector cells, NK cells and T cells, were co-cultured in 96-well V-bottom plate with indicated tumour cells at the stated effector target ratio (E:T). The supernatant was collected onto LUMA plates (Perkin-Elmer) and radioactivity/tumour cell lysis was detected by MicroBeta2 (Perkin Elmer). Target cell killing measured by % specific lysis and calculated using the formula: ((experimental release-spontaneous release)/(maximum release-spontaneous release))*100.
(§3) Lymphocytes were pre-treated for 18 h with Auranofin (AUF, with the concentration 1 μg/mL for NK cells and 0.5 μg/mL for TIL. As AUF was reconstituted in DMSO, control NK cells were pre-treated with DMSO with an equivalent volume to the highest compound concentration. For N-acetylcysteine (NAC, Invitrogen) treatment, DMSO pre-treated cells were incubated for 1 h with 5 or 10 mM NAC prior to H2O2 treatment. For H2O2 treatment, lymphocytes were washed and resuspended to 1×10^6 cells/mL in RPMI containing the indicated H2O2 (Sigma-Aldrich) concentration for 1 h at 37° C. 5% CO2. Cells were washed with medium and then used for further experiments.

Series [2] relates to tumour infiltrating lymphocytes (TIL). In words: IFNγ release by pre-treated TIL on autologous tumour cells after H2O2 treatment. Conditions: KADA and ANRU melanoma TIL, E:T 4:1, vs control group. As to the method: ., 2020). […] For Nrf2 inhibition, NK cells were treated with 50 μM ML-385 (Sigma-Aldrich) in parallel. […] Cells were washed with medium and then used for further experiments. For monocyte experiments, autologous NK cell-monocytes or TIL-monocytes were used. […] Stimulated monocytes were activated with 100 ng/ml PMA for 1 min, washed and added at indicated ratio, the number of NK cell/TIL was kept constant. […] For cytokine release assay, NK cells and TIL were cultured with indicated tumour cells at the effector target ratio 4:1 (E:T) for 24 h in U-bottom plates. IFNγ secretion was measured using human IFN-γ ELISA development kit (Mabtech) following the manufacturer's instructions.

Series [3] deals with NK cells. The experiment in a line: NK cells co-cultured with PMA-activated autologous monocytes: intracellular ROS and K562 lysis. The protocol: as §1
Monocytes were stimulated with 100 ng/ml PMA for 1 min and washed with HBSS (Gibco). Cells were resuspended in HBSS 5% FBS and added to a 96-well Optiplate (Perkin Elmer) containing HBSS 5% FBS and Luminol (56 μM; Sigma). Luminescence was measured immediately using a EnSpire plate reader (Perkin Elmer).
For detection of intracellular ROS levels, for NK cells CellROX™ Deep Red Reagent (Invitrogen) were used. Briefly, NK cells were stained with 2.5 μM CellROX solution in RPMI for 30 min at 37° C. and then stained for flow cytometry with anti-CD56 and anti-CD3 (both Biolegend).
as §2

In series [4] the test system is KADA TIL. The experiment in a line: Quantification of CD4+ T cells and Tregs in AUF pre-treated KADA TIL (flow cytometry). Conditions: AUF 0.5 μg/mL. The protocol:
Tregs were defined as CD3+CD4+ FoxP3+. Directly after the treatment, TIL were stimulated for six hours with PMA/Ionomycin or autologous tumor cells and then stained for intracellular cytokines IL-10 (C) and TGFβ (D).
as §3
All antibodies (see Table 1 in Example 1) and FACS reagents were used according to manufacturers' recommendation, if not stated otherwise. Cells were stained with LIVE/DEAD™ Fixable Aqua Dead Cell Stain Kit (Invitrogen) and then stained with the respective antibodies for 20 min at 4 °C in PBS 1% FBS. Intracellular staining was performed using Fixation/Permeabilization Kit (BD Biosciences) following the manufacturer's instructions. […]
For orientation: In flow cytometry, cells or beads pass a laser one at a time.

As for `CC(=O)OC[C@H]1O[C@@H]([S-])[C@H](OC(C)=O)[C@@H](OC(C)=O)[C@@H]1OC(C)=O.CCP(CC)CC.[Au+]` [AUF, Auranofin], the “Lysis of K562 target cells by pre-treated NK cells after H2O2 exposure” value in series [1] (18 h pre-treatment, H2O2 1 h up to 250 μM, E:T 9:1, vs control NK cells) was “counteracted; also recorded: strong protective effect against ROS”. Moreover, in series [1] (72 h after AUF removal, E:T 3:1), the “Effector functions of NK cells (K562 lysis) vs controls” value is “no differences”. For the same compound, in series [1] (AML cell line KASUMI-1, H2O2, E:T 9:1), the “Killing of KASUMI-1 cells by pre-treated NK cells” value was “significantly increased killing”. In series [1] (AML cell line THP-1, H2O2, E:T 9:1), the “Killing of THP-1 cells by pre-treated NK cells” value is “significantly increased killing”. Further, the “Time after start of pre-treatment with most pronounced protection of functional cytotoxicity capacity” value in series [1] (NK cells, K562 lysis, H2O2, E:T 9:1) is reported as “around 18 h”. Moreover, in series [1] (compared to untreated controls), the “Lysis of K562 by AUF pre-treated NK cells despite addition of ML385” value is listed as “lysis was increased”. Moreover, the “Suppressive effect of H2O2 on lymphocyte function (killing, degranulation, IFNγ)” value in series [1] (expanded NK cells and patient derived TIL, pre-treatment) is listed as “counteracts the suppressive effect of H2O2 on lymphocyte function”. Besides, in series [1] (post pre-treatment), the “Duration of improved NK cell and TIL tolerance towards oxidative stress” value is given as “up to two to three days”. The “Dependence of the protective effect on Nrf2 activation” value in series [1] (qPCR of Nrf2 target genes and K562 lysis with/without Nrf2 inhibitor ML385) is “dependent on Nrf2 activation”. For the same compound, in series [1] (up to 48 h after AUF removal, E:T 3:1), the “Effector functions of NK cells (K562 lysis)” value is given as “significantly improved effector functions”. Besides, in series [1] (up to 72 h after compound removal), the “Effector function of NK cells and TIL after H2O2 treatment” value is “increased effector function”. Further, in series [2], the “Recognition of autologous tumour cells by TIL (IFNγ production) upon exposure to H2O2” value is “increased recognition of their autologous tumour cells”. Also, in series [3], the “Protection of NK cells from monocyte-derived ROS” value is listed as “protects NK cells from monocyte-derived ROS”. Also, the “Intracellular ROS in NK cells co-cultured with activated monocytes” value in series [3] (0.5 μg/mL AUF, 2 h co-culture, vs controls) is “significantly lower levels of intracellular ROS”. Also, the “Killing of K562 target cells by NK cells co-cultured with activated monocytes” value in series [3] (also at the highest monocyte to NK cell ratio) is reported as “significantly higher efficiency”. Also, in series [4], the “Frequency of CD4+ T cells after AUF pre-treatment” value is recorded as “did not observe any increase”. In addition, the “Induction of regulatory T cells (CD3+CD4+FoxP3+)” value in series [4] (0 h or 72 h post pre-treatment) is “do not induce regulatory T cells; also recorded: no induction of regulatory T cells could be detected”.

These data come from patent US20240277767A1, “METHODS AND USES” (PROLEUKOCYTE AB, priority 2021, published 2024).
